Data as given in US10160766B1, “Benzopyranyl tetracycle compound and pharmaceutical composition having excellent anti-inflammatory effect comprising the same” (Spark Biopharma, Inc., priority 2017, dated 2018).
Converted amounts (≈) assume the structure as drawn. “Also recorded” adds a separate entry of the source.

Legend:
Raw 264.7 cell = assay: WST (water-soluble tetrazolium) analysis, relative cell viability; format: cell-based; conditions: 100 ng/mL LPS and compounds 24 hours
Procedure: Relative cell viability of Compound 2a to 2o prepared in Examples 2 was measured by WST (water-soluble tetrazolium) analysis.
Raw 264.7 cell was seeded in transparent 96-well plate and maintained for 1 day.
Media was aspirated, and each well was washed with serum free DMEM for twice. Each well was refilled with serum-free DMEM. Then, 100 ng/mL LPS and compounds were treated afterward and cultured for 24 hours. After the incubation, the supernatant culture media was transferred to new 96-well plate.
Immediately after transferring media, cell-seeded wells were refilled with 100 μL of 10% FBS and 1% antibiotic-antimycotic containing DMEM. Then, 10 μL of Ez-cytox WST assay reagent was used to treat each well, following the manufacturer's protocol.
After incubating for 20 min in a 5% CO2 incubator at 37° C. with humidified atmosphere, absorbance was read at 450 nm.
Blank values were obtained from the well only treated with 10% FBS and 1% antibiotic-antimycotic containing DMEM.

Aqueous solubility = format: physicochemical
Text: (§1) The aqueous solubility, liver microsomal stabilities and PK profiles was measure for Compounds 1d, 2j, and 2l in the in vivo CLP-induced mouse models.

[1] = test system: TNF-α secretion in Raw264.7 cell; assay: ELISA of secreted TNF-α; format: cell-based; conditions: Mus musculus, LPS 100 ng/mL, compounds 10 μM, read-out: TNF-α Inhibition Rate (%)
Procedure: Thus, in order to additionally confirm the inflammation inhibitory effects of Compounds 2f to 2l, the inhibition rate of TNF-α secretion was quantitatively measured by ELISA.
Cells were treated with each Compound 1d, or 2f to 2l, and LPS for 24 hours, followed by ELISA for TNF-α present in the culture solution.
In order to measure the amount of secreted TNF-α, Raw264.7 cell was seeded in transparent 96-well plate and maintained for 1 day. Media was aspirated after 1 day and replaced to serum-free DMEM with 1% (v/v) antibiotic-antimycotic solution. LPS and compounds were treated in a final concentration of 100 ng/mL and 10 μM.
Standard curve was plotted by the dose-dependent treatment of the control TNF-α protein provided with the ELISA kit. Blank value was measured by adding solutions without TNF-α substrate.
The TNF-α secretion inhibition rate of Compounds 1d, and 2f to 2l was confirmed, when compared with control groups.

[2] = Liver microsomal stability, human; format: in vitro ADME; conditions: for microsomal stability Human(%): human liver microsomal
Text: as §1

[3] = test system: MAPK including p38, JNK, and ERK; assay: Western blot of MAPK phosphorylation; format: cell-based; conditions: Raw264.7 cells
Procedure: (§2) Western Blot Analysis Protein sampling was done in 4° C. Cells were harvested in RIPA lysis buffer containing protease inhibitor cocktail and phosphatase inhibitor.
(§3) After centrifugation at 15000 rpm for 20 minutes, supernatant was transferred to new 1.5 mL tube. Protein concentration was normalized with a Micro BCA protein assay kit. The protein samples were analyzed with the Western blot procedure. Protein was transferred into PVDF membrane after SDS-PAGE. Membrane was blocked after transfer step, with 2% BSA in TBST for 1 hour in room temperature.
(§4) Primary antibodies were treated overnight at 4° C. or 1 hour in room temperature, followed by washing with TBST.
(§5) HRP-conjugated secondary antibodies were treated for 1 hour in room temperature. Antibodies were diluted in 1% BSA in TBST solution, with the concentration indicated in antibody manufacturer's protocol. After washing with TBST, the membrane was developed by Amersham ECL prime solution. Chemiluminescent signal was measured by ChemiDoc MP imaging system, and relative quantification were followed using ImageLab 4.0 software. The quantification result was processed with GraphPad Prism 5.0 software.

[4] = test system: IL-6 secreted from Raw 264.7 cells; assay: Western blot analysis of IL-6 secretion; format: cell-based; conditions: pretreatment with compounds
Procedure: From the results shown in Table 6, Compounds 2j (68%) and 2l (60%) had better TNF-α release inhibitory effect than that of Compound 1d (43%). Therefore, the inhibitory effect of IL-6 release secretion was analyzed with the Western blot analysis in order to additionally confirm the inflammation inhibitory effect of Compounds 2j and 2l.
as §2, §3, §4, §5

CLP-induced mice = assay: Survival rate in CLP-induced mouse model; conditions: for survival rate, in words / survival rate: CLP mice; for survival rate, in words: 10 mg/kg ip daily for 21 days, compared with vehicle and 1d groups; for survival rate: intraperitoneally, daily dose of 10 mg/kg for 21 days, start 1 hour before induction
Text: Briefly, the CLP mouse model is established by performing a surgical procedure to the cecum, which is the organ where the resident enteric microbiome exists. Ligating the cecum and puncturing the end with a needle causes endotoxemia by inducing polymicrobial contamination in the abdominal cavity toward the circulatory system.

NF-κB p65 = NF-κB p65 immunofluorescence (migration to the nucleus); format: cell-based; conditions: Raw264.7 cells, 500 ng/mL LPS
Text: It is concluded that Compounds 1d, 2j, and 2l controlled and regulated the inflammatory signaling pathways in activated macrophages.

[5] = Liver microsomal stability, mouse; format: in vitro ADME; conditions: for microsomal stability Mouse(%): mouse liver microsomal
Text: as §1

PK profiles in mouse = format: in vivo; conditions: ip injection
Text: as §1

HMGB1 = assay: Immunofluorescence of cellular localization of HMGB1 upon LPS treatment; format: cell-based; conditions: Raw264.7 cell, 20 μM compounds 1 hour prior to 500 ng/mL LPS for 2 hours
Procedure: From the results shown in Table 6, Compounds 2j (68%) and 2l (60%) had better TNF-α release inhibitory effect than that of Compound 1d (43%). Therefore, it was analyzed with the immunofluorescence whether Compounds 2j and 2l may inhibit the cellular localization of HMGB1 upon LPS treatment.
Raw264.7 cell was seeded in “Nunc Lab-Tek II” chambered coverglass and maintained for 1 day.
Then, 20 μM of compounds were treated 1 hour prior to 500 ng/mL LPS treatment for 2 hours.
After aspirating the media and washing with PBS, 200 μl of 4% paraformaldehyde solution was treated and incubated at room temperature for 20 minutes. Then, 4% paraformaldehyde solution was aspirated and the sample was washed with PBS three times.
For the permeabilization to enable antibody binding, 200 μL of methanol was treated and incubated at −20° C. for 20 minutes. Methanol was then removed and the sample was washed with PBS three times.
Sample was blocked with 2% BSA in PBS solution at room temperature for 1 hour. Then, 2% BSA in PBS solution was removed and primary antibody containing 1% BSA in PBS was treated at 4° C. overnight. Antibody concentration was optimized according to the manufacturer's protocol. Primary antibody solution was removed and the sample was washed with PBS three times. Secondary antibody containing 1% BSA in PBS solution was treated at room temperature for 1 hour.
The secondary antibody used was goat anti rabbit TRITC labeled antibody from Abcam.
After 1 hour, antibody solution was aspirated and the sample was washed with PBS three times. For nucleus staining, Hoechst 33342 was diluted in PBS, and each well was treated and incubated at room temperature for 1 hour. Hoechst 33342 was then removed and the chamber was filled with PBS, continued for imaging using DeltaVision microscope.

[6] = test system: NO release in Raw264.7 cells; assay: Griess assay, inhibition of nitric oxide release; format: cell-based; conditions: 100 ng/mL LPS and compounds 24 hours, compared with control group
Procedure: Thus, the Griess assay was used to measure nitric oxide secretion for inflammation inhibition in Raw264.7 cells.
Raw 264.7 macrophage cell was cultured in Dulbecco Modified Eagle Medium (DMEM) with 10% (v/v) fetal bovine serum (FBS) and 1% (v/v) antibiotic-anti mycotic solution.
Cell was maintained in a 100 mm cell culture dish under cell culture conditions (5% CO2 incubator at 37° C. with humidified atmosphere).
Griess assay reagent was generated prior to the assay with the following contents listed below: N-(1-naphthyl) ethylenediamine dihydrochloride, 0.1% (m/v); sulfanilamide, 1% (m/v); phosphoric acid (85%); 5% (v/v) in deionized water.
Raw 264.7 cell was seeded in transparent 96-well plate and maintained for 1 day. Media was aspirated, and each well was washed with serum free DMEM for twice. Each well was refilled with serum-free DMEM.
Then 100 ng/mL LPS and compounds were treated afterward and cultured for 24 hours. After the incubation, the supernatant culture media was transferred to new 96-well plate and mixed with 50 μL of Griess assay reagent.
Media-reagent mixture was incubated at room temperature for several minutes. Absorbance was read at 548 nm. Four wells each were used for the control experiment, LPS and DMSO (without any compounds) treated well, and DMSO-only treated well. Blank values were measured.
Blank values were measured by mixing 50 μL of Griess assay reagent with […] and 1% antibiotic-antimycotic containing DMEM.
As for the compounds in which the double bond of the tetrahydropyridazine ring in Compound 1d is moved or eliminated, the inhibition rate of NO release was measured in the same manner as in Test Example 2.
The inhibition rate of NO release for Compounds 2a to 2o prepared in Example 2 was tested in order to confirm the anti-inflammatory effect for the above compounds.

IL-6 = IL-6 level in CLP-induced mice (ELISA); conditions: CLP mouse model, daily dose of 10 mg/kg for 9 days starting 1 hour before CLP induction
Procedure: After 4 hours, media were transferred to new transparent 96-well plate and diluted with 1% BSA in PBS solution. ELISA assay was performed following the manufacturer's protocol.
ELISA plates (Costar, Cambridge, Mass.) were coated overnight with anti-IL-6 monoclonal antibody (eBioscience, San Diego, Calif.) at 4° C. Wells were blocked with PBS containing 1% bovine serum albumin (Sigma-Aldrich, St. Louis, Mo.) for 1 hour at room temperature (RT) and incubated with serum overnight at 4° C.
After washing, plates were incubated with biotinylated anti-IL-6 antibody (eBioscience) for 1 hour at RT. Streptavidin-conjugated horseradish peroxidase (eBioscience) is attached for 1 hour at RT. Then, Color was developed using TMB solution (eBioscience),
Absorbance was read at 450 nm with a Multiskan Ascent (Labsystems, Kennett Square, Pa.). All experiments were independently performed at least three times.

Row | SMILES | Relative Cell Viability (%) (Raw 264.7 cell) | solubility in aqueous media, in words, compared with Compound 1d (Aqueous solubility) | inhibition at 10 µM [1] [%] | liver microsomal stability in humans, in words, compared with Compound 1d [2] | microsomal stability Human(%) [2] [%] | phosphorylation of MAPK including p38, JNK, and ERK [3] | level of IL-6 secreted (western blot) [4] | survival rate, in words (CLP-induced mice) | survival rate (CLP-induced mice) | migration of NF-κB to the nucleus (NF-κB p65) | liver microsomal stability in mice, in words, compared with Compound 1d [5] | microsomal stability Mouse(%) [5] [%] | PK data AUC (PK profiles in mouse) [µg·h/mL] | PK data Cmax (PK profiles in mouse) [µg/mL] | PK data T1/2 (PK profiles in mouse) [h] | PK data Tmax (PK profiles in mouse) [h] | translocation of HMGB1 from the nucleus to the cytosol (HMGB1) | NO Inhibition rate (%) [6] [%] | also measured
1 | COc1cc(OC)cc(-n2c(=O)n3n(c2=O)C2C(=CC3)C(C)(C)Oc3cc(O)ccc32)c1 (centres unmarked) [Compound 2l] | 121 | improved solubility in aqueous media | 60 | improved liver microsomal stability | 41.2 ± 4.33 | clearly inhibited the phosphorylation of MAPK including p38, JNK, and ERK | superior inhibitory effect on IL-6 secretion; also recorded: improved the inhibition of IL-6 release | superior effects on survival rates | 54% | inhibit the migration of NF-κB to the nucleus | improved liver microsomal stability | 20.2 ± 1.78 | 218 ± 51.8 | 282 ± 87.0 | 5.00 ± 0.98 | 0.14 ± 0.10 | inhibited the translocation of HMGB1 from the nucleus to the cytosol | 94 | 
2 | CC1(C)Oc2cc(O)ccc2C2C1=CCn1c(=O)n(-c3ccccc3)c(=O)n12 (centres unmarked) [Compound 1d, inflachromene] | 105 |  | 43 |  | 0.82 ± 0.29 | clearly inhibited the phosphorylation of MAPK including p38, JNK, and ERK | significantly reduced |  | about 45% | inhibit the migration of NF-κB to the nucleus |  | 0.41 ± 0.10 | 327 ± 68.7 | 387 ± 122 | 3.87 ± 0.84 | 0.14 ± 0.10 | inhibited the translocation of HMGB1 from the nucleus to the cytosol | 87 | survival rate, in words, compared with vehicle-treated group (CLP-induced mice; CLP-induced mice, ip 10 mg/kg for 9 days): significantly increased; IL-6 levels in surviving mice, compared with control group (IL-6): significantly reduced
3 | CC(=O)c1ccc(-n2c(=O)n3n(c2=O)C2C(=CC3)C(C)(C)Oc3cc(O)ccc32)cc1 (centres unmarked) [Compound 2j] | 111 | improved solubility in aqueous media | 68 | improved liver microsomal stability | 30.2 ± 2.81 | clearly inhibited the phosphorylation of MAPK including p38, JNK, and ERK | superior inhibitory effect on IL-6 secretion; also recorded: improved the inhibition of IL-6 release | superior effects on survival rates | 74% | inhibit the migration of NF-κB to the nucleus | improved liver microsomal stability | 2.46 ± 1.83 | 202 ± 28.1 | 100 ± 3.72 | 3.45 ± 1.00 | 0.25 ± 0.00 | inhibited the translocation of HMGB1 from the nucleus to the cytosol | 93 | solubility (Aqueous solubility; aqueous media): 162 ± 2.12 µg/mL (≈ 387 µM)
